In patent US20060234327A1, “Methods for identifying enzyme inhibitors and protein kinases” (priority 2003, published 2006):
Values belong to the molecule of their own block, whether it stands above or below them.

Experiments:
[1] = target: CDK2 (Homo sapiens, UniProt P24941); assay: FSBA covalent modification and protection by competitors, followed by LC/MS; type: binding; settings: for Mass Peak (relative percentage), unmodified CDK2 peak: peak 33,971 Da; for Mass Peak (relative percentage), FSBA-modified CDK2 peak: peak 34,404 Da
[2] = target: T1, ALK5 (kinase domain of the TGF-β type I receptor) (Homo sapiens, UniProt P36897); assay: ^14C-FSBA affinity labeling detected by autoradiography; type: binding; settings: ˜20 μM ^14C-FSBA, 1 hour
T1 construct: recombinantly expressed and purified kinase domain of the transforming growth factor (TGF)-β type I receptor; made in house; host or cells: baculovirus expression system
T1 sequence (P36897 205-495 limits assumed): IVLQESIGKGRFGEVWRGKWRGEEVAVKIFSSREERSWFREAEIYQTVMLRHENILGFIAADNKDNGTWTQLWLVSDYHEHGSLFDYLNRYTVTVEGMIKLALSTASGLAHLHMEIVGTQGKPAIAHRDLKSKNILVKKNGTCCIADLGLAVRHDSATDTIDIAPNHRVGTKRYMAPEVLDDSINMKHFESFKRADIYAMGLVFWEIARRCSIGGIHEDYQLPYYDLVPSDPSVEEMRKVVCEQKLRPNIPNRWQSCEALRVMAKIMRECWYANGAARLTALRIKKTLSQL

[3] = target: T2, ALK4 (Homo sapiens, UniProt P36896); assay: FSBA covalent modification and protection by competitors, followed by LC/MS; type: binding; settings: for Mass Peak (relative percentage), unmodified ALK4 peak: peak 35,025 Da; for Mass Peak (relative percentage), FSBA-modified ALK4 peak: peak 35,459 Da
T2 sequence (P36896 24-505): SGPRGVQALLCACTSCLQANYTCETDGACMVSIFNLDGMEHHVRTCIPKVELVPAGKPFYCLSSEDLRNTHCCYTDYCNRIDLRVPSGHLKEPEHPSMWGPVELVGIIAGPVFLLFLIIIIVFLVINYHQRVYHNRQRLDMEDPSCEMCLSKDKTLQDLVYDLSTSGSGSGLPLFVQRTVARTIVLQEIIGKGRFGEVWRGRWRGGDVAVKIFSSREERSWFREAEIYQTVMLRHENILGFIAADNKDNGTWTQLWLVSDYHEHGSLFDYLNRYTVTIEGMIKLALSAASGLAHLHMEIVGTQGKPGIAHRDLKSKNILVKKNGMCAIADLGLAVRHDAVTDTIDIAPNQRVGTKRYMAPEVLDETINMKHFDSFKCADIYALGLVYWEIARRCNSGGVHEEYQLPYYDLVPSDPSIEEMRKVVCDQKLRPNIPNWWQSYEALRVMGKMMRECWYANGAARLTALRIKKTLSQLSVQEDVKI

[4] = target: T3, ALK5 (Homo sapiens, UniProt P36897); assay: Biotin-FSBA binding and competition detected by Western blot (avidin-HRP); settings: biotin-FSBA 20 μM
T3 construct: recombinantly expressed and purified kinase domain of the transforming growth factor (TGF)-β type I receptor; made in house; host or cells: baculovirus expression system
T3 sequence (P36897 205-495 limits assumed): T1 sequence (P36897 205-495 limits assumed)

[5] = target: T3, ALK5; assay: FSBA covalent modification and protection by competitors, followed by LC/MS; type: binding; settings: for Mass Peak (relative percentage), FSBA-modified ALK5 peak: peak 35,405 Da; for Mass Peak (relative percentage), unmodified ALK5 peak: peak 34,972 Da
[6] = tested on: human ROCK1 (hROCK1)
[7] = tested on: proteins in HeLa cell lysate; assay: Profiling kinases from complex proteome with biotin-FSBA, Western blot; type: binding

- Mass Peak (relative percentage), unmodified CDK2 peak ([1]; FSBA 10 μM plus ATP 1 mM): 33,971 Da (20%)
- Mass Peak (relative percentage), FSBA-modified CDK2 peak ([1]; FSBA 10 μM plus ATP 1 mM): 34,404 Da (80%),
- Mass Peak (relative percentage), unmodified CDK2 peak ([1]; FSBA 10 μM plus ATP 5 mM): 33,971 Da (90%)
- Mass Peak (relative percentage), FSBA-modified CDK2 peak ([1]; FSBA 10 μM plus ATP 5 mM): 34,404 Da (10%),
- Mass Peak (relative percentage), unmodified CDK2 peak ([1]; FSBA 10 μM plus ATP 10 mM): 33,971 Da (100%)
- ATP concentration necessary to block FSBA binding to CDK2 ([1]; FSBA 10 μM, LC/MS): 5 mM
- Effect of ATP on ^14C-FSBA labeling of ALK5 by autoradiography ([2]; 1 mM ATP): most of the labeling was blocked
- Mass Peak (relative percentage), unmodified ALK4 peak ([3]; FSBA 10 μM plus ATP 50 μM): 35,025 Da (5%)
- Mass Peak (relative percentage), FSBA-modified ALK4 peak ([3]; FSBA 10 μM plus ATP 50 μM): 35,459 Da (95%),
- Mass Peak (relative percentage), unmodified ALK4 peak ([3]; FSBA 10 μM plus ATP 100 μM): 35,025 Da (30%)
- Mass Peak (relative percentage), FSBA-modified ALK4 peak ([3]; FSBA 10 μM plus ATP 100 μM): 35,459 Da (70%),
- Mass Peak (relative percentage), unmodified ALK4 peak ([3]; FSBA 10 μM plus ATP 500 μM): 35,025 Da (100%)
- ATP concentration at which most of the covalent modification of ALK4 by FSBA was inhibited ([3]; FSBA 10 μM, LC/MS): 0.5 mM
- ATP concentration at which biotin-FSBA/ALK5 bands were no longer visible [4]: ≥ 1.0 mM
- Mass Peak (relative percentage), FSBA-modified ALK5 peak ([5]; FSBA 10 μM plus ATP 50 μM): 35,405 Da (100%)
- Mass Peak (relative percentage), unmodified ALK5 peak ([5]; FSBA 10 μM plus ATP 100 μM): 34,972 Da (30%)
- Mass Peak (relative percentage), FSBA-modified ALK5 peak ([5]; FSBA 10 μM plus ATP 100 μM): 35,405 Da (70%),
- Mass Peak (relative percentage), unmodified ALK5 peak ([5]; FSBA 10 μM plus ATP 500 μM): 34,972 Da (100%)
- ATP concentration at which most of the covalent modification of ALK5 by FSBA was inhibited ([5]; FSBA 10 μM, LC/MS): 0.5 mM
Compound: Nc1ncnc2c1ncn2[C@@H]1O[C@H](COP(=O)(O)OP(=O)(O)OP(=O)(O)O)[C@@H](O)[C@H]1O [ATP]
- Effect of ATP on ^14C-FSBA labeling of ALK5 by autoradiography ([2]; 10 mM ATP): autoradiograph did not detect ^14C-FSBA binding

Compound: C[C@@H](N)[C@H]1CC[C@H](C(=O)Nc2ccncc2)CC1 [Y-27632]
- Effect on FSBA labeling of ROCK1 [6]: abrogated FSBA labeling of ROCK1
- Inhibition of FSBA labeling of hROCK1 [6]: inhibits hROCK1 at a 1:1 ratio
- Mode of action on hROCK1 [6]: competitive inhibitor of hROCK1
- Effect on FSBA binding to ALK5 ([5]; 5 μg ALK5, FSBA 40 μM, about 2 hours, LC/MS): had no effect on FSBA binding to ALK5
- Effect on FSBA labeling of ALK5 ([5]; 10 μg ALK5, 10 μM FSBA, 3 hours at room temperature, LC/MS): did not inhibit FSBA labeling of ALK5

Compound: CN[C@@H]1C[C@H]2O[C@@](C)([C@@H]1OC)n1c3ccccc3c3c4c(c5c6ccccc6n2c5c31)C(=O)NC4 [staurosporine]
- Effect of staurosporine on FSBA binding to ALK4 [3]: essentially blocked
- Effect on biotin-FSBA band intensity in HeLa cell lysate ([7]; 80 μg lysate, 500 μM staurosporin 2 hours, then biotin-FSBA 20 μM 4 hours, Western blot (Example 12)): reduced intensity in selective bands
- Effect on biotin-FSBA band intensity in HeLa cell lysate ([7]; staurosporin 500 μM 2 hours, then biotin-FSBA 4 hours, Western blot (Example 11)): dramatic decrease in band intensity for selected bands
- Effect of staurosporine on FSBA binding to ALK5 [5]: essentially blocked
